Assay results as given in ChEMBL document CHEMBL1201862, “PubChem BioAssay data set” (2004).
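All cell lines were grown in 96-well plates and treated with compound for 48 hours. At the GI50, growth is halved.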 Active and inactive are the calls of the source. No stated cut-off is given here; in the data, active = GI50 up to about 1.1 µM and inactive = higher.

Experiments:
Test in all cases: NCI-60 cell line screen, 48 h
[1] = tested on: KM12
[2] = tested on: EKVX
[3] = tested on: NCI-H23
[4] = tested on: DU-145
[5] = tested on: SF-539
[6] = tested on: SK-MEL-2
[7] = tested on: NCI-H522
[8] = tested on: OVCAR-5
[9] = tested on: PC-3
[10] = tested on: SF-295
[11] = tested on: Malme-3M
[12] = tested on: SN12C
[13] = tested on: ACHN
[14] = tested on: HT-29
[15] = tested on: 786-0
[16] = tested on: UACC-62
[17] = tested on: U-251
[18] = tested on: SNB-19
[19] = tested on: UACC-257

Compound	GI50 [1]	GI50 [2]	GI50 [3]	GI50 [4]	GI50 [5]	GI50 [6]	GI50 [7]	GI50 [8]	GI50 [9]	GI50 [10]	GI50 [11]	GI50 [12]	GI50 [13]	GI50 [14]	GI50 [15]	GI50 [16]	GI50 [17]	GI50 [18]	GI50 [19]
COC(=O)c1ccc2c(c1)sc1nc(-c3ccc(OC)cc3)cn12	56.1 µM (inactive)	> 100 µM (inactive)	> 100 µM (inactive)	> 100 µM (inactive)	59.8 µM (inactive)	> 100 µM (inactive)	62.2 µM (inactive)	> 100 µM (inactive)	> 100 µM (inactive)	> 100 µM (inactive)	> 100 µM (inactive)	> 100 µM (inactive)	> 100 µM (inactive)	83.4 µM (inactive)	> 100 µM (inactive)	> 100 µM (inactive)	31.7 µM (inactive)	66.5 µM (inactive)	49 µM (inactive)
COc1ccc(OC)c([N+](=O)[O-])c1-c1nc2sc(Cl)cn2c1/C=N/N=C(N)N	15.4 µM (inactive)	25.6 µM (inactive)	26.4 µM (inactive)	21.8 µM (inactive)	22.9 µM (inactive)	18.6 µM (inactive)	16.6 µM (inactive)	25.9 µM (inactive)	13.8 µM (inactive)	24.9 µM (inactive)	22.5 µM (inactive)	17.3 µM (inactive)	28.6 µM (inactive)	15.5 µM (inactive)	42.9 µM (inactive)	13.3 µM (inactive)	24.8 µM (inactive)	19.4 µM (inactive)	19.3 µM (inactive)
CN(C1=NCCO1)c1cccc2c1CCCC2	6.97 µM (inactive)	8.55 µM (inactive)	3.73 µM (inactive)	9.55 µM (inactive)	3.25 µM (inactive)	4.09 µM (inactive)	4.16 µM (inactive)	3.9 µM (inactive)	2.25 µM (inactive)	4.35 µM (inactive)	2.76 µM (inactive)	3.08 µM (inactive)	3.18 µM (inactive)	2.43 µM (inactive)	3.17 µM (inactive)	3.37 µM (inactive)	3.57 µM (inactive)	8.04 µM (inactive)	3.92 µM (inactive)
COc1cccc(CCNc2c(C#N)c3nc4ccccc4n3c3ccccc23)c1	0.258 µM (active)	2.09 µM (inactive)	0.741 µM (active)	2.29 µM (inactive)	0.548 µM (active)	> 41.6 µM (inactive)	0.063 µM (active)	7 µM (inactive)	1.11 µM (active)	0.364 µM (active)	0.239 µM (active)	3.19 µM (inactive)	0.998 µM (active)	0.337 µM (active)	0.541 µM (active)	0.316 µM (active)	0.721 µM (active)	0.787 µM (active)	0.851 µM (active)
COc1cc2c[n+](C)c3c4cc(OC)c(OCc5ccccc5)cc4c(OCc4ccccc4)cc3c2cc1OC	10.5 µM (inactive)	38.5 µM (inactive)	5.58 µM (inactive)	11.5 µM (inactive)	2.57 µM (inactive)	2.1 µM (inactive)	0.416 µM (active)	> 29.6 µM (inactive)	2.5 µM (inactive)	25.7 µM (inactive)	2.22 µM (inactive)	4.03 µM (inactive)	> 75.2 µM (inactive)	3.61 µM (inactive)	13.2 µM (inactive)	2.6 µM (inactive)	0.449 µM (active)	0.923 µM (active)	2.9 µM (inactive)
N=C(N)NS(=O)(=O)c1ccc(NNC(=O)c2cccc3c(O)c4ccccc4nc23)cc1	21.8 µM (inactive)	23.4 µM (inactive)	31.2 µM (inactive)	32.7 µM (inactive)	26.5 µM (inactive)	25.1 µM (inactive)	21.6 µM (inactive)	42.6 µM (inactive)	28.4 µM (inactive)	35.7 µM (inactive)	19.6 µM (inactive)	33.8 µM (inactive)	21.1 µM (inactive)	21.6 µM (inactive)	38.4 µM (inactive)	30.3 µM (inactive)	32.8 µM (inactive)	48.6 µM (inactive)	31.6 µM (inactive)
COC(=O)[C@@H]1C[C@H]2OC(=O)CC[C@]2(C)O[C@H]1[C@H]1O[C@@](C)(O)CCC[C@H]1C	> 50 µM (inactive)	> 50 µM (inactive)	> 50 µM (inactive)	> 50 µM (inactive)	> 50 µM (inactive)	> 50 µM (inactive)	28.6 µM (inactive)	> 50 µM (inactive)	> 50 µM (inactive)	> 50 µM (inactive)	> 50 µM (inactive)	> 50 µM (inactive)	> 50 µM (inactive)	> 50 µM (inactive)	> 50 µM (inactive)	> 50 µM (inactive)	> 50 µM (inactive)	> 50 µM (inactive)	> 50 µM (inactive)
COc1ccc(Oc2nc3cc(C(F)(F)F)ccc3nc2C(C)C)cc1	31.6 µM (inactive)	19.2 µM (inactive)	21 µM (inactive)	27.2 µM (inactive)	41.5 µM (inactive)	18.5 µM (inactive)	19.1 µM (inactive)	24.9 µM (inactive)	41.6 µM (inactive)	21.2 µM (inactive)	24.7 µM (inactive)	24.5 µM (inactive)	26.2 µM (inactive)	19 µM (inactive)	36 µM (inactive)	28.2 µM (inactive)	23.1 µM (inactive)	33.1 µM (inactive)	26.1 µM (inactive)
CCOC(=O)c1sc2nc(SC)nc3c2c1NCN3c1ccc(F)c(F)c1	10.7 µM (inactive)	32.4 µM (inactive)	14.6 µM (inactive)	8.43 µM (inactive)	5.2 µM (inactive)	> 71 µM (inactive)	21.1 µM (inactive)	> 100 µM (inactive)	16.4 µM (inactive)	24.2 µM (inactive)	7.59 µM (inactive)	30.5 µM (inactive)	6.97 µM (inactive)	29.8 µM (inactive)	4.82 µM (inactive)	> 52.4 µM (inactive)	9.27 µM (inactive)	34.8 µM (inactive)	> 45.8 µM (inactive)
CC(C)(C)C1=CC(=C2C=Cc3cc(O)ccc3O2)C=C(C(C)(C)C)C1=O	1.58 µM (inactive)	1.85 µM (inactive)	1.79 µM (inactive)	1.45 µM (inactive)	1.87 µM (inactive)	1.63 µM (inactive)	1.48 µM (inactive)	2.13 µM (inactive)	1.57 µM (inactive)	1.87 µM (inactive)	1.59 µM (inactive)	1.63 µM (inactive)	1.69 µM (inactive)	1.65 µM (inactive)	1.36 µM (inactive)	1.38 µM (inactive)	1.39 µM (inactive)	1.77 µM (inactive)	1.57 µM (inactive)
CCCCCCCCCCCCCC/C(C(=O)O)=C(\C)C(=O)O	> 100 µM (inactive)	> 100 µM (inactive)	> 100 µM (inactive)	> 100 µM (inactive)	> 100 µM (inactive)	> 100 µM (inactive)	> 100 µM (inactive)	> 100 µM (inactive)	38.2 µM (inactive)	> 100 µM (inactive)	> 100 µM (inactive)	> 100 µM (inactive)	> 100 µM (inactive)	> 100 µM (inactive)	> 100 µM (inactive)	> 100 µM (inactive)	> 100 µM (inactive)	> 100 µM (inactive)	> 100 µM (inactive)
